The record followed here is PMC4755756, “Catalysis-dependent selenium incorporation and migration in the nitrogenase active site iron-molybdenum cofactor” (eLife, 2015).

As usually defined, the Ki is the dissociation constant of the complex between target and ligand, obtained from inhibition or displacement.

The target of test [1] is T1, nitrogenase MoFe-protein (Av1) (Azotobacter vinelandii, UniProt P07328).
T1 construct: gene nifD; purified Av1, (αβ)2 tetramer, with Av2; with MoFe-protein β subunit (NifK); Fe-protein (Av2)
The experiment in a line: inhibition of acetylene reduction, Dixon plot (gas chromatography); Se incorporation seen by crystallography. The class given is biochemical. The source says:
inhibition of acetylene reduction, Dixon plot (gas chromatography); Se incorporation seen by crystallography on nitrogenase MoFe-protein (Av1) | SeCN^- is a potent, yet reversible inhibitor of acetylene reduction

The target of test [2] is T1, nitrogenase MoFe-protein (Av1). The experiment in a line: inhibition of acetylene reduction, Dixon plot (gas chromatography). It counts as biochemical.

`N#C[SeH]` [selenocyanate]: the Ki in test [1] was 0.41 ± 0.03 mM.
In test [2], `N#CS` [thiocyanate] displayed a Ki of 12.7 ± 1.2 mM.
